From ChEMBL document CHEMBL3885861, “Open TG-GATES”

Species on record: Rattus norvegicus
Test: Open TG-GATES - Regimen: Single
Assay type: toxicity, organism-based, Sprague-Dawley
Parameters: regimen Single, gender Male, age 6 weeks
Details: in vivo, sc, 0.2 mg/kg, route subcutaneous injection, dose 200 ug/Kg, dose level Middle; for APTT / Bas / Eos / Fbg / Hb / Ht / Lym / MCH / MCHC / MCV / Mono / Neu / PT / Plat / RBC / Ret / WBC: tissue Blood; for KIDNEY_L / KIDNEY_R / KIDNEY_TOTAL: tissue Kidney; for LIVER: tissue Liver; for A/G / ALP / ALT / AST / BUN / CRE / Ca / Cl / DBIL / GLC / IP / K / LDH / Na / PL / RALB / TBIL / TC / TG / TP / gamma-GTP: tissue Plasma

CC(=O)O.N=C(N)NCCC[C@@H](NC(=O)[C@@H]1CCCN1C(=O)[C@@H]1CSSCCC(=O)N[C@@H](Cc2ccc(O)cc2)C(=O)N[C@@H](Cc2ccccc2)C(=O)N[C@@H](CCC(N)=O)C(=O)N[C@@H](CC(N)=O)C(=O)N1)C(=O)NCC(N)=O [DESMOPRESSIN ACETATE]
TERMINAL_BW (3 h): 206.2 g
APTT (3 h): 17.6 s
Bas (3 h): 0%
Eos (3 h): 1%
Fbg (3 h): 256.3 mg/dL
Hb (3 h): 12.8 g/dL
Ht (3 h): 39.6%
Lym (3 h): 71.8%
MCH (3 h): 21.1 pg
MCHC (3 h): 32.3%
MCV (3 h): 65.1 fL
Mono (3 h): 7.6%
Neu (3 h): 19.6%
PT (3 h): 12.2 s
Plat (3 h): 112.4 x10_4/uL
RBC (3 h): 609.4 x10_4/ul
Ret (3 h): 8.8%
WBC (3 h): 77 x10_2/uL
KIDNEY_L (3 h): 0.9 g
KIDNEY_R (3 h): 1 g
KIDNEY_TOTAL (3 h): 1.9 g
LIVER (3 h): 9.9 g
A/G (3 h): 2
ALP (3 h): 1405.8 IU/L
ALT (3 h): 44.4 IU/L
AST (3 h): 81.2 IU/L
BUN (3 h): 23.8 mg/dL
CRE (3 h): 0.4 mg/dL
Ca (3 h): 11.8 mg/dL
Cl (3 h): 101 meq/L
DBIL (3 h): 0.012 mg/dL
GLC (3 h): 205.6 mg/dL
IP (3 h): 10.8 mg/dL
K (3 h): 4.6 meq/L
LDH (3 h): 272.6 IU/L
Na (3 h): 134.6 meq/L
PL (3 h): 145.8 mg/dL
RALB (3 h): 3.8 g/dL
TBIL (3 h): 0.05 mg/dL
TC (3 h): 77 mg/dL
TG (3 h): 99.8 mg/dL
TP (3 h): 5.7 g/dL
gamma-GTP (3 h): 0.8 IU/L
TERMINAL_BW (6 h): 205.6 g
APTT (6 h): 18.4 s
Bas (6 h): 0%
Eos (6 h): 1.6%
Fbg (6 h): 244.6 mg/dL
Hb (6 h): 13 g/dL
Ht (6 h): 39.7%
Lym (6 h): 71.8%
MCH (6 h): 21.4 pg
MCHC (6 h): 32.8%
MCV (6 h): 65.3 fL
Mono (6 h): 8.8%
Neu (6 h): 18%
PT (6 h): 12.5 s
Plat (6 h): 124.8 x10_4/uL
RBC (6 h): 609.4 x10_4/ul
Ret (6 h): 8.7%
WBC (6 h): 102.8 x10_2/uL
KIDNEY_L (6 h): 1 g
KIDNEY_R (6 h): 1 g
KIDNEY_TOTAL (6 h): 2 g
LIVER (6 h): 9.6 g
A/G (6 h): 2.1
ALP (6 h): 1316 IU/L
ALT (6 h): 34.8 IU/L
AST (6 h): 63.2 IU/L
BUN (6 h): 27.4 mg/dL
CRE (6 h): 0.3 mg/dL
Ca (6 h): 10.9 mg/dL
Cl (6 h): 101 meq/L
DBIL (6 h): 0.016 mg/dL
GLC (6 h): 200.6 mg/dL
IP (6 h): 10.3 mg/dL
K (6 h): 4.6 meq/L
LDH (6 h): 127.6 IU/L
Na (6 h): 135.4 meq/L
PL (6 h): 155.6 mg/dL
RALB (6 h): 3.7 g/dL
TBIL (6 h): 0.064 mg/dL
TC (6 h): 84.2 mg/dL
TG (6 h): 76.2 mg/dL
TP (6 h): 5.5 g/dL
gamma-GTP (6 h): 1 IU/L
TERMINAL_BW (9 h): 199.6 g
APTT (9 h): 17.9 s
Bas (9 h): 0%
Eos (9 h): 1.2%
Fbg (9 h): 239.4 mg/dL
Hb (9 h): 13.3 g/dL
Ht (9 h): 41%
Lym (9 h): 74.4%
MCH (9 h): 21.4 pg
MCHC (9 h): 32.4%
MCV (9 h): 66.2 fL
Mono (9 h): 7.4%
Neu (9 h): 17%
PT (9 h): 12.5 s
Plat (9 h): 112.4 x10_4/uL
RBC (9 h): 620 x10_4/ul
Ret (9 h): 9.2%
WBC (9 h): 93.8 x10_2/uL
KIDNEY_L (9 h): 1 g
KIDNEY_R (9 h): 1 g
KIDNEY_TOTAL (9 h): 2.1 g
LIVER (9 h): 8.4 g
A/G (9 h): 2
ALP (9 h): 1325.8 IU/L
ALT (9 h): 31 IU/L
AST (9 h): 60.4 IU/L
BUN (9 h): 28.4 mg/dL
CRE (9 h): 0.3 mg/dL
Ca (9 h): 11.2 mg/dL
Cl (9 h): 102.6 meq/L
DBIL (9 h): 0.016 mg/dL
GLC (9 h): 195.6 mg/dL
IP (9 h): 10.6 mg/dL
K (9 h): 5.4 meq/L
LDH (9 h): 104.4 IU/L
Na (9 h): 135.4 meq/L
PL (9 h): 144 mg/dL
RALB (9 h): 3.7 g/dL
TBIL (9 h): 0.068 mg/dL
TC (9 h): 84 mg/dL
TG (9 h): 50.2 mg/dL
TP (9 h): 5.5 g/dL
gamma-GTP (9 h): 0.8 IU/L
TERMINAL_BW (24 h): 218.4 g
APTT (24 h): 16.7 s
Bas (24 h): 0%
Eos (24 h): 1%
Fbg (24 h): 245.4 mg/dL
Hb (24 h): 12.6 g/dL
Ht (24 h): 38.9%
Lym (24 h): 77.4%
MCH (24 h): 21.1 pg
MCHC (24 h): 32.4%
MCV (24 h): 65.3 fL
Mono (24 h): 6.4%
Neu (24 h): 15%
PT (24 h): 12.3 s
Plat (24 h): 123 x10_4/uL
RBC (24 h): 596.6 x10_4/ul
Ret (24 h): 10.6%
WBC (24 h): 103.4 x10_2/uL
KIDNEY_L (24 h): 1 g
KIDNEY_R (24 h): 1 g
KIDNEY_TOTAL (24 h): 2 g
LIVER (24 h): 10.2 g
A/G (24 h): 2
ALP (24 h): 1597.6 IU/L
ALT (24 h): 40.2 IU/L
AST (24 h): 69.8 IU/L
BUN (24 h): 19.8 mg/dL
CRE (24 h): 0.4 mg/dL
Ca (24 h): 11.1 mg/dL
Cl (24 h): 103.6 meq/L
DBIL (24 h): 0 mg/dL
GLC (24 h): 197.4 mg/dL
IP (24 h): 8.5 mg/dL
K (24 h): 5.3 meq/L
LDH (24 h): 156.4 IU/L
Na (24 h): 137.2 meq/L
PL (24 h): 157 mg/dL
RALB (24 h): 3.6 g/dL
TBIL (24 h): 0.022 mg/dL
TC (24 h): 90.6 mg/dL
TG (24 h): 93 mg/dL
TP (24 h): 5.5 g/dL
gamma-GTP (24 h): 1.8 IU/L
